In one assay the test system is microtubule protein. In words: Stability of microtubules against Ca++-induced depolymerization. It counts as biochemical, calf. To be noted: 10 mM CaCl2. How it is done: (§1) Eleutherobin and its derivatives were synthesized as described (18,19). Taxol was obtained from the Drug Development Branch, National Cancer Institute (Bethesda, Md.). All compounds were dissolved in dimethyl sulfoxide (Sigma Chemical Co., St. Louis, Mo.) at stock concentrations of 5 mM and stored at -20° C. All control samples contained an equal volume of DMSO. GTP was obtained from Sigma Chemical Co. And dissolved in sterile distilled water at a concentration of 10 mM and stored at -20° C. Microtubule protein was purified from calf brains by two cycles of temperature-dependent assembly and disassembly (20) and stored in liquid nitrogen prior to use. The anti-mouse β-tubulin monoclonal antibody T-4026 was obtained from Sigma Chemical Co.
(§2) The ability of each compound to polymerize tubulin was evaluated by recording the change in turbidity of microtubule protein at 350 nm for 80 min in a spectrophotometer (UVIKON, Research Instruments Int., SD, Calif.). One mg of purified microtubule protein was diluted in assembly buffer containing 0.1 M MES, 1 mM EGTA, 0.5 mM MgCl2 and 3 M glycerol, pH 6.6. All compounds were evaluated at a concentration of 10 μM at 37° C. GTP was used at a final concentration of 1 mM. Microtubule stability was assessed by the addition of 10 mM Ca^++. changes from t=0-10 min were used to calculate initial slopes from the linear portion of each curve. These values were used to calculate the activity of each compound (relative to the activity of Taxol which was assigned a value of 100%).
The ability of each compound to polymerize and/or stabilize microtubules was assessed (FIG. 7). To investigate whether eleutherobin and its derivatives shared the microtubule stabilizing properties of Taxol, 10 mM CaCl2 was added to each sample after maximum microtubule polymerization occurred, and the effects on turbidity recorded spectrophotometrically. A positive control was included in which 1 mM GTP was used to confirm the ability of GTP-stabilized microtubules to undergo Ca^++ induced depolymerization.
The ability of this compound to stabilize microtubules formed in the presence of GTP was examined. After a period of 15 min, 10 mM Ca^++ was added and the change in turbidity recorded.

Assay [1] concerns SKVBL (MDR variant of SKOV3). Briefly: Cytotoxicity by counting cells after 72 h, MDR variant cells. It counts as cell-based, human. How it is done: Human non-small cell lung carcinoma cells, A549, were maintained in RPMI 1640 containing 10% fetal bovine serum and 1% penicillin-streptomycin (Gibco Laboratories, Grand Island N.Y.) at 37° C. in 7% CO2. The Taxol-resistant cell line A549-T12 was selected for resistance to Taxol and maintained in a final concentration of 12 nM drug (21). Human ovarian carcinoma cells SKOV3 and the MDR variant SKVBL (obtained from Dr. V. Ling) were maintained in α-mem plus ribonucleotides, deoxynucleotides, 15% fetal bovine serum and 1% penicillin-streptomycin (Gibco Laboratories) at 37° C. in 5% CO2. SKVBL cells were maintained in […] vinblastine (Sigma Chemical Co.).
Taxol-resistant and sensitive cell lines were seeded into 12-well plates at a density of 5×10^4 cells per well and allowed a period of 12 h for attachment prior to treatment. Cells were exposed to 10-fold serial dilutions of each compound (10^-10 to 10^-6 M) for 72 h. Cells were then trypsinized and counted (Coulter counter model ZF0031, Coulter Corp., Miami, Fla.). The IC50 was determined by plotting cell number against log of the drug concentration and this was used to determine the concentration of compound resulting in 50% growth inhibition compared to untreated cells. Each cell line was assayed in a minimum of 3 independent experiments with each compound and the results expressed as the mean IC50.
The cytotoxic efficacy of eleutherobin and its derivatives (FIG. 6) was evaluated in two drug sensitive human cancer cell lines and their Taxol-resistant counterparts. The results are summarized in Table I in order of decreasing potency. […] The Taxol-resistant cell line SKVBL overexpresses high levels of P-glycoprotein (22). […] The only difference between the two agents is the enantiomeric relationship in the carbohydrate (2'-acetylarabinose) sector (FIG. 6). […] This cell line expressed high levels of MDR1 resulting in Taxol-resistance equal or greater than 1666 -fold compared to the Taxol-sensitive SKOV3 cell line.
^a Cytotoxicity determined by counting cells after 72 h drug exposure.

Assay [2] deals with tubulin / microtubule protein. In words: Tubulin polymerization by turbidity at 350 nm in the absence of GTP. It is filed as biochemical, calf. The settings on record: 10 μM, 37 °C, relative to 10 μM Taxol (100%). The method, then:
as §1
as §2, with “GTP was used at a final concentration of 1 mM.” left out
The polymerization activity of these compounds was also assessed by determining the slope of the linear portion of each curve at A350 nm (t=0-10 min), and expressing this relative to Taxol (which was assigned a value of 100% (FIG. 8). The order of activity of eleutherobin and derivatives using this method, corroborates the results obtained from cytotoxicity studies.

The next assay has as its system tumor cell lines. To be noted: variety of tumor cell lines; cited from earlier work.

The text below walks through data of patent US6172205A, “Synthetic process toward total synthesis of eleutherobin and its analogues and uses thereof” (The Trustees of Columbia in the City of New York, priority 1998, dated 2001).

Entries after “also recorded” stand apart in the source; their conditions may differ.

Usually IC50 stands for the concentration needed to halve the response being measured. Consider `CO[C@]12C=C[C@](C)(O1)[C@@H](OC(=O)/C=C/c1cn(C)cn1)C[C@H]1C(C)=CC[C@H](C(C)C)[C@H]1/C=C\2CO[C@@H]1OC[C@@H](O)[C@@H](O)[C@@H]1OC(C)=O` [Eleutherobin], for which the “stabilization against Ca++-induced depolymerization (in words)” value in the assay with microtubule protein is “stabilized microtubules against Ca^++ -induced depolymerization”. Besides, in assay [1] (Homo sapiens, SK-OV-3, Ovarian Carcinoma SKOV3, Resistant (SKVBL), 72 h, mean of at least three independent experiments), the IC50 is above 1000 nM. Besides, in assay [1] (MDR1 expressing cells, high P-glycoprotein), the “cross-resistance in SKVBL (in words)” value is given as “exhibited cross-resistance in an MDR1 expressing cell line; also recorded: demonstrated cross-resistance”. The “fold resistance relative to the parental cell line” value in assay [1] (SKVBL vs SKOV3) is listed as at least 1052 fold. Besides, the “polymerization activity relative to Taxol” value in assay [2] was determined as 94%. In the assay with tumor cell lines, the “potency in tumor cell lines (in words)” value was “excellent potency in a variety of tumor cell lines”.
